Results from patent US20240408169A1 (priority 2023, published 2024).
*1 amine or outer side, *2 acyl side, *3 side chain or, on linkers, in order; H or OH if unused. Where a SMILES comes first, the peptide text is derived from it. Bridges are numbered along the chain shown (N, C = ends). [ ]: non-standard residue; d: D form. The star is where a group is joined. X124 = CC(C)C(=O)N1[C@@H]2CC[C@H]1C=C(c1ccc(F)cc1C[C@@H](C(=O)[*:2])N(C)[*:1])C2; NMeAla(5-Cl-2-cPrO-3-pyridyl) = CN[C@@H](Cc1cc(Cl)cnc1OC1CC1)C(=O)O; X149 = CN([C@@H](Cc1cc(Cl)ccc1-c1ccnc(N2CCOCC2)c1F)C(=O)[*:2])[*:1]; X137 = CN([C@@H](Cc1cc(F)ccc1-c1cnn(S(C)(=O)=O)c1)C(=O)[*:2])[*:1]; X170 = CN([C@@H](Cc1cc(Cl)ccc1-c1ccc2nonc2c1)C(=O)[*:2])[*:1]; X26 = CN([C@@H](Cc1cc(F)ccc1-c1cnn(C2CC2)c1)C(=O)[*:2])[*:1]; NMehhhLys(Me) = CN([C@@H](CCCCCCCN(C)[*:3])C(=O)[*:2])[*:1]; NMe3Pal(2-OcPr,5-F) = CN[C@@H](Cc1cc(F)cnc1OC1CC1)C(=O)O; NMe(hhhLys) = CN([C@@H](CCCCCCCN[*:3])C(=O)[*:2])[*:1]; Cyclobutanecarbonyl(1-CF3) = O=C(C1(C(F)(F)F)CCC1)*; cBuCO(3,3-F2-1-CF3) = O=C(C1(C(F)(F)F)CC(F)(F)C1)*; Pro(trans-4-F) = O=C(O)[C@@H]1C[C@@H](F)CN1; Pivaloyl(3,3,3-F3) = CC(C)(C(=O)*)C(F)(F)F; Gly(cPr) = N[C@H](C(=O)O)C1CC1; X129 = N#CC1(C(=O)*)CCC1

Tests used:
CyclinB1/CDK1 = biological target: T1, CyclinB1/CDK1 (Homo sapiens, UniProt P14635); test: Fluorescence Polarization (FP) competitive binding assay, Cyclin B1/Cdk1; conditions: 10 nM Cyclin B1/Cdk1, 2 nM FAM probe; average of 2-3 independent experiments; read-out: Cyclin B FP IC50;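 further: fluorescence polarization read after equilibration at room temperature, with IC50 taken from serially diluted dose-response curves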
T1 construct: purchased Eurofins, discovery 14-450

OVCAR3 cells = test: MTT proliferation assay, OVCAR3; format: cell-based; conditions: 5 days compound exposure, 1:3 serial dilution starting at 10 μM;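 further: compound given as an 8- or 10-point series, one day after plating, with exposure covering roughly 3-4 cell doublings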
CyclinA2/CDK2 = biological target: T2, CyclinA2/CDK2 (Homo sapiens, UniProt P20248); test: Fluorescence Polarization (FP) competitive binding assay, Cyclin A2/Cdk2; conditions: 8 nM Cyclin A2/Cdk2, 2 nM FAM probe; average of 2-3 independent experiments; read-out: Cyclin A FP IC50;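 further: plates equilibrated two hours at room temperature before polarization reading, IC50 fitted from eight-concentration compound titration curves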
T2 construct: purchased CRELUX Protein Services

NCI-H1048 cells = test: MTT proliferation assay, NCI-H1048; format: cell-based; conditions: 5 days compound exposure, 1:3 serial dilution starting at 10 μM;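 further: Dose-response in 96-well plates over 8 or 10 concentration points, with exposure spanning 3-4 cell doublings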
CyclinE1/CDK2 = biological target: T3, CyclinE1/CDK2 (Homo sapiens, UniProt P24864); test: Fluorescence Polarization (FP) competitive binding assay, Cyclin E1/Cdk2; conditions: 10 nM Cyclin E1/Cdk2, 2 nM FAM probe; average of 2-3 independent experiments; read-out: Cyclin E FP IC50;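 further: readings taken after two-hour equilibration at room temperature in HEPES buffer with NaCl, DTT, NP-40 and BSA, IC50 fitted from eight-concentration serial dilution series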
T3 construct: purchased Eurofins, discovery 14-475

Row | Compound | IC50 (CyclinB1/CDK1) [nM] | GI50 (OVCAR3 cells) [nM] | IC50 (CyclinA2/CDK2) [nM] | GI50 (NCI-H1048 cells) [nM] | IC50 (CyclinE1/CDK2) [nM]
1 | CC(C)C[C@@H]1NC(=O)[C@@H](N(C)C(=O)[C@@H](NC(=O)[C@@H]2C[C@@H](F)CN2C(=O)C2(C(F)(F)F)CC(F)(F)C2)C2CC2)CCCCCCCN(C)C(=O)[C@H](Cc2cc(Cl)ccc2-c2ccc3nonc3c2)N(C)C1=O [Example 170] ({cBuCO(3,3-F2-1-CF3)}-[Pro(trans-4-F)][Gly(cPr)][NMehhhLys(Me)]L[X170]; lactam 3-C) | 20 | 200 | 50 | 130 | 2220
2 | CC(C)C[C@@H]1NC(=O)[C@@H](N(C)C(=O)[C@@H](NC(=O)[C@@H]2C[C@@H](F)CN2C(=O)C2(C(F)(F)F)CC(F)(F)C2)C2CC2)CC=CCCCCN(C)C(=O)[C@H](Cc2cc(Cl)cnc2OC2CC2)N(C)C1=O [Example 104] | 20 | 260 | 160 | 160 | 490
3 | CC(C)C[C@@H]1NC(=O)[C@@H](N(C)C(=O)[C@@H](NC(=O)[C@@H]2C[C@@H](F)CN2C(=O)C2(C(F)(F)F)CC(F)(F)C2)C2CC2)CCCCCCCN(C)C(=O)[C@H](Cc2cc(Cl)ccc2-c2ccnc(N3CCOCC3)c2F)N(C)C1=O [Example 349] ({cBuCO(3,3-F2-1-CF3)}-[Pro(trans-4-F)][Gly(cPr)][NMehhhLys(Me)]L[X149]; lactam 3-C) | 20 | 10 | 20 | 10 | 230
4 | CC(C)C[C@@H]1NC(=O)[C@@H](N(C)C(=O)[C@@H](NC(=O)[C@@H]2C[C@@H](F)CN2C(=O)C2(C(F)(F)F)CC2)C2CC2)CC=CCCCCNC(=O)[C@H](Cc2cc(Cl)ccc2Cl)N(C)C1=O (single isomer, unassigned) [Example 5-P1] | 20 | 690 | 790 | 390 | 700
5 | CC(C)C[C@@H]1NC(=O)[C@@H](N(C)C(=O)[C@@H](NC(=O)[C@@H]2C[C@@H](F)CN2C(=O)C2(C(F)(F)F)CC(F)(F)C2)C2CC2)CCCCCCCN(C)C(=O)[C@H](Cc2cc(F)ccc2C2=C[C@@H]3CC[C@H](C2)N3C(=O)C(C)C)N(C)C1=O [Example 317] ({cBuCO(3,3-F2-1-CF3)}-[Pro(trans-4-F)][Gly(cPr)][NMehhhLys(Me)]L[X124]; lactam 3-C) | 20 | 10 | 30 | 10 | 250
6 | CC(C)C[C@@H]1NC(=O)[C@@H](N(C)C(=O)[C@@H](NC(=O)[C@@H]2C[C@@H](F)CN2C(=O)C2(C#N)CCC2)C2CC2)CCCCCCCN(C)C(=O)[C@H](Cc2cc(F)ccc2-c2cnn(C3CC3)c2)N(C)C1=O [Example 122] (X129-[Pro(trans-4-F)][Gly(cPr)][NMehhhLys(Me)]L[X26]; lactam 3-C) | 20 | 50 | 20 | 50 | 100
7 | CC(C)C[C@@H]1NC(=O)[C@@H](N(C)C(=O)[C@@H](NC(=O)[C@@H]2C[C@@H](F)CN2C(=O)C(C)(C)C(F)(F)F)C2CC2)CCCCCCCN(C)C(=O)[C@H](Cc2cc(F)ccc2-c2cnn(S(C)(=O)=O)c2)N(C)C1=O [Example 304] ({Pivaloyl(3,3,3-F3)}-[Pro(trans-4-F)][Gly(cPr)][NMehhhLys(Me)]L[X137]; lactam 3-C) | 20 | 10 | 40 | 10 | 190
8 | CC(C)C[C@@H]1NC(=O)[C@@H](N(C)C(=O)[C@@H](NC(=O)[C@@H]2C[C@@H](F)CN2C(=O)C2(C(F)(F)F)CC(F)(F)C2)C2CC2)CCCCCCCNC(=O)[C@H](Cc2cc(Cl)cnc2OC2CC2)N(C)C1=O [Example 103] ({cBuCO(3,3-F2-1-CF3)}-[Pro(trans-4-F)][Gly(cPr)][NMe(hhhLys)]L[NMeAla(5-Cl-2-cPrO-3-pyridyl)]; lactam 3-C) | 20 | 50 | 60 | 30 | 350
9 | CC(C)C[C@H]1NC(=O)[C@H](N(C)C(=O)[C@H](NC(=O)[C@H]2C[C@H](F)CN2C(=O)C2(C#N)CCC2)C2CC2)CCCCCCCN(C)C(=O)[C@@H](Cc2cc(Cl)ccc2-c2cnn(C)c2)N(C)C1=O [Example 82] | 20 | 70 | 20 | 30 | 220
10 | CC(C)C[C@@H]1NC(=O)[C@@H](N(C)C(=O)[C@@H](NC(=O)[C@@H]2C[C@@H](F)CN2C(=O)C2(C(F)(F)F)CCC2)C2CC2)CCCCCCCNC(=O)[C@H](Cc2cc(F)cnc2OC2CC2)N(C)C1=O [Example 134] ({Cyclobutanecarbonyl(1-CF3)}-[Pro(trans-4-F)][Gly(cPr)][NMe(hhhLys)]L[NMe3Pal(2-OcPr,5-F)]; lactam 3-C) | 20 | 40 | 100 | 30 | 120
